The text below walks through data of patent EP0833161A1, “Method for maintaining a continuously-saturated level of ascorbic acid in a patient's body” (Ordman, Alfred B., priority 1996, dated 1998).

Structures are written as SMILES.

The nature of data set [1]: Effect of twice-daily doses of vitamin C on urinary output (DCIP assay). In kind it is in vivo, human. Conditions: for urinary excretion: one individual. The protocol:
Twice-daily doses of 500 mg were sufficient to elevate vitamin C in the urine continuously as shown for 5 individuals in Fig. 4.
(§1) Vitamin C was assayed by the 2,6-dichlorophenolindophenol (DCIP) assay (see Omaye, T. S. et al. "Selected Methods for the Determination of Ascorbic Acid in Animal Cells," in Methods Enzymol.: Vitamins and Coenzymes, Vol. 62, edited by McCormick, D. B. and L. D. Wright, New York, Academic Press, 1979, pp. 3-11). Samples diluted to 0-40 µg ascorbic acid with 5% phosphoric acid were assayed in a citrate/acetate buffer by reaction with DCIP, and the color at 520 nm compared with standards. Samples were assayed in duplicate and each experiment was repeated.
In order to achieve such sustained presence of vitamin C in urine, it is instead necessary to take it at least twice daily, as shown in Fig. 3. Different dosages (from 0.25 to 2.0 grams) of vitamin C were administered to a representative subject every 12 hours, at times 0 and 12 hour in the figure, on four separate days of a four week period. The mass of vitamin C present in the urine was measured at every micturition. The individual was tested one day of the week for four consecutive weeks with progressively increasing dosages followed by six-day periods of rest. As illustrated by the figure, taking at least 500 mg twice daily led to continuously elevated levels of vitamin C in the urine tested.
Each micturition during the entire 24 hours was collected and the total mass of vitamin C excreted by each subject was measured by the DCIP assay. In yet another experiment, two daily doses of 0.5 grams of vitamin C were taken daily for 8 days, then no pills were taken for a week, and then 0.5 g daily were taken again for another 8 days. Each micturition during the first and last 24 hr of each 8 day period was collected and assayed to determine the total mass of vitamin C excreted.

The conditions of data set [2]: 500 mg dose, average person, within the first 12 hr after ingestion; cited from earlier work.
The nature of data set [3]: Effect of single daily dose of vitamin C on total 24-hour urinary excretion (DCIP assay). It is filed as in vivo, human. The protocol:
In order to determine how daily dosages related to total excretion and whether high daily doses would alter the rate of excretion after a week, groups of test subjects took either 0, 0.25, 1, or 2 gram doses of vitamin C at 8 am daily for 8 consecutive days. All urine was collected and pooled on day 1 and on day 8. The concentration was assayed and the total amount of vitamin C excreted during the 24-hour period was determined, as shown in Fig. 1.
as §1
Vitamin C was administered daily to five individuals at 8 am for eight consecutive days. All urine for each individual was collected during the first and last 24-hour periods and the total amount of vitamin C excreted in the urine was determined by DCIP assay.

Data set [4] in a line: Rate of urinary excretion of a single daily dose of vitamin C, every micturition assayed (DCIP assay). In kind it is in vivo, human. The protocol:
In order to determine how rapidly vitamin C is excreted, several individuals took 2 grams of vitamin C daily (single dose) for 8 consecutive days, and collected samples and measured the volume of every micturition during the first and last day. The experiment was repeated with the same individuals after a seven-day rest. Each sample was analyzed to determine the time period, concentration range, and total urinary excretion of vitamin C. The results arc shown in Fig. 2 for three representative individuals. Vitamin C concentration in the urine increased after 4 hours from time of intake and remained elevated for a total of 12 hours, consistent with the hypothesis that vitamin C levels in the body are not elevated for an entire 24 hour period by a single daily dose.
as §1
Fig. 2 illustrates the effect of two grams of daily single-dose vitamin C taken orally for eight days, followed by six days with no intake, and then by eight more days of two grams taken daily in a single dose. Each micturition during the first and last 24 hours of each eight-day period was collected and assayed to determine the total mass of vitamin C excreted. Figures 2a-2c represent excretion from three different individuals.

For `O=C1O[C@H]([C@@H](O)CO)C(O)=C1O` [vitamin C, ascorbic acid], the urinary excretion result in data set [1] (250 mg every 12 hours) is listed as “did not cause detectable excretion in amounts exceeding normal quantities”. Besides, the urinary excretion result in data set [1] (500 mg or higher (up to 2000 mg) every 12 hours) is “continuously-detectable elevated levels of excretion”. The “vitamin C in the urine” value in data set [1] (500 mg twice daily for a week, first and last day) is “remains continuously elevated”. For the same compound, the “fraction of dose absorbed into the body” value in data set [2] is “about 60%”. Besides, in data set [3] (0, 0.25, 1 or 2 gram doses at 8 am daily, 24-hour pooled urine), the “rate of urinary excretion versus daily dose” value was “increased with increasing daily doses”. Besides, in data set [3] (in vivo), the “intake rate at which a consistently elevated urinary level (greater than SD) begins” value is listed as 250-500 mg per day, the “one-time dose necessary for detectable excretion” value was 500 mg and the “vitamin C levels in urine” value is “no detectable vitamin C levels in urine”. Moreover, in data set [3] (single daily dose for 8 consecutive days, 24-hour pooled urine), the “amount excreted on day 8 compared with day 1” value is “similar”. In data set [4] (2 grams daily, single dose), the “share of ingested vitamin C detected in the urine” value was “only a small percentage”. In addition, in data set [4] (2 grams daily, single dose, 8 consecutive days), the “excretion pattern, first versus last day” value is “No noticeable difference”. For the same compound, in data set [4] (in vivo), the “time from intake after which vitamin C concentration in the urine increased” value is 4 h and the “total time vitamin C concentration in the urine remained elevated” value was 12 h.
